Source: article PMC5971037, “Synthesis and evaluation of antimicrobial, antitubercular and anticancer activities of 2-(1-benzoyl-1H-benzo[d]imidazol-2-ylthio)-N-substituted acetamides” (Chemistry Central Journal, 2018)
≈ marks a conversion by molar mass, not a printed value. Like-named read-outs stand apart in the source and are kept apart here.

Columns and labels:
S. typhi [1] = test: Tube dilution MIC; format: cell-based; conditions: Salmonella enterica, 24 h, read-out: MIC S. typhi
B. cereus [2] = test: MBC by subculturing; format: cell-based
Protocol: (§1) The minimum bactericidal concentration (MBC) and minimum fungicidal concentration (MFC) of the synthesized benzimidazole derivatives was determined by subculturing 100 µl of culture from each tube that remained clear in MIC determination onto sterilized petri-plates containing fresh agar medium. The petri-plates were incubated and analyzed for microbial growth visually.

B. subtilis [3] = test: MBC by subculturing; format: cell-based
Protocol: as §1

E. coli [4] = test: MBC by subculturing; format: cell-based; conditions: Escherichia coli
Protocol: as §1

S. aureus [5] = test: MBC by subculturing; format: cell-based; conditions: Staphylococcus aureus
Protocol: as §1

S. typhi [6] = test: MBC by subculturing; format: cell-based; conditions: Salmonella enterica, read-out: MBC S. typhi
Protocol: as §1

A. niger [7] = test: MFC by subculturing; format: cell-based
Protocol: as §1

C. albicans [8] = test: MFC by subculturing; format: cell-based
Protocol: as §1

[9] = test system: M. tuberculosis H37Rv (NCFT/TB/537); test: Well diffusion susceptibility test (zone of inhibition); format: cell-based; conditions: Mycobacterium tuberculosis, 672 h, read-out: Diameter of zone of inhibition against H37Rv (NCFT/TB/537), wells of 8 mm, 50 µg/ml test compound, 25 µg/ml standard drug, 4 weeks, NA = no activity
M. tuberculosis H37Rv [10] = test: MIC by microplate alamar blue assay; format: cell-based; conditions: Mycobacterium tuberculosis, NA = no activity, read-out: MIC against M. tuberculosis H37Rv
M. tuberculosis H37Rv [11] = test: Minimum lethal concentration (MLC); format: cell-based; conditions: Mycobacterium tuberculosis, NA = no activity, read-out: MLC against M. tuberculosis H37Rv
[12] = test system: MCF7 (human breast cancer) cell line; test: Sulforhodamine-B (SRB) cytotoxicity assay; format: cell-based
[13] = test system: HCT116 (human colorectal) cell line; test: Sulforhodamine-B (SRB) cytotoxicity assay; format: cell-based
[14] = test system: Gram positive as well as Gram negative bacterial species; test: Tube dilution MIC, bacteria overall; format: cell-based
S. aureus [15] = test: Tube dilution MIC; conditions: Staphylococcus aureus, 24 h, read-out: MIC S. aureus
B. cereus [16] = test: Tube dilution MIC; conditions: Bacillus cereus, 24 h, read-out: MIC B. cereus
B. subtilis [17] = test: Tube dilution MIC; conditions: Bacillus subtilis, 24 h, read-out: MIC B. subtilis
E. coli [18] = test: Tube dilution MIC; conditions: Escherichia coli, 24 h, read-out: MIC E. coli
C. albicans [19] = test: microbe, parasite or virus in culture; conditions: Candida albicans, 48 h, read-out: MIC C. albicans
A. niger [20] = test: microbe, parasite or virus in culture; conditions: Aspergillus niger, 168 h, read-out: MIC A. niger
[21] = In vivo LD50, ED50 and toxic dose in mice models; conditions: mouse, dose that killed 50% of the mice population within the group
Protocol: The LD50 and ED50 were determined for the active compounds in mice models infected with Mycobacterium H37Rv (Table 4). […] Thus, ED50 of 1.34 mg/kg was considered safe for each of the compounds. It was observed that this dose was effective and safe for mice in different groups before infecting the mice models with specific TB bacteria as no mortality of any single animal was recorded.
The LD50 (lethal dose) and ED50 (optimum/effective dose) doses were determined for the active compounds in mice models infected with Mycobacterium H37Rv via ethical permission no., NCFT/EC/16/2313 assigned to Collaborative Research Group (CRG), NCFT, New Delhi, India.

[22] = molecular target: mycobacterial isocitrate lyase (Mycobacterium tuberculosis, UniProt P9WKK7); test: Mycobacterial isocitrate lyase (ICL) assay; format: biochemical, M. tuberculosis H37Rv; conditions: read-out: Percent inhibition of enzyme, M. ICL activity
Chain of mycobacterial isocitrate lyase (P9WKK7 whole entry): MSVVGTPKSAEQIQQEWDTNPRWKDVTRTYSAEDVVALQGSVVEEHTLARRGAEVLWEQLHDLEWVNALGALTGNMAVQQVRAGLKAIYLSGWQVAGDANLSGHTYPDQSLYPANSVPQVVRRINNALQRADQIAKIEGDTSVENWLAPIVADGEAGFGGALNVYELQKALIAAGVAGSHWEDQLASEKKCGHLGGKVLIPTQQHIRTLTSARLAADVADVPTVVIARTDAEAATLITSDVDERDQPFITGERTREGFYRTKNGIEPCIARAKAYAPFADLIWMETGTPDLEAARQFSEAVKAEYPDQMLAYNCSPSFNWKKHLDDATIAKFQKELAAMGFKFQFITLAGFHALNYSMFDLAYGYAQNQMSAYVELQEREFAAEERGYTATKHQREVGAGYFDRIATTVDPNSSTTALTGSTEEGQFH
Protocol: The compounds found potent in in vivo evaluation were assayed for inhibition of mycobacterial enzymes viz., isocitrate lyase, pantothenate synthetase and chorismate mutase.
Isocitrate lyase activity was assayed according to the protocol reported by Dixon and Kornberg (glyoxylate phenyl hydrazone formation) at 10 μM of the compounds.

[23] = Bacillus cereus; read-out: MBC B. cereus
[24] = Bacillus subtilis; read-out: MBC B. subtilis
[25] = Aspergillus niger; read-out: MFC A. niger
[26] = Candida albicans; read-out: MFC C. albicans
[27] = SRB assay, MCF7 cell line, read-out: IC50 MCF7
[28] = HCT-116, SRB assay, HCT116 cell line, read-out: IC50 HCT116
[29] = Bacillus cereus, read-out: MBC B. cereus
[30] = Bacillus subtilis, read-out: MBC B. subtilis
[31] = Aspergillus niger, read-out: MFC A. niger
[32] = Candida albicans, read-out: MFC C. albicans

Row | SMILES | MIC (S. typhi [1]) | MBC (E. coli [4]) | MBC (S. aureus [5]) | MBC (S. typhi [6]) | zone of inhibition at 50 µg/mL [9] | MIC (M. tuberculosis H37Rv [10]) | MBC (M. tuberculosis H37Rv [11]) | MIC against Gram positive as well as Gram negative bacterial species [14] | MIC (S. aureus [15]) | MIC (B. cereus [16]) | MIC (B. subtilis [17]) | MIC (E. coli [18]) | MIC (C. albicans [19]) | MIC (A. niger [20]) | MBC (B. cereus [2]; [29]) | MBC (B. subtilis [3]; [30]) | MFC (A. niger [7]; [31]) | MFC (C. albicans [8]; [32]) | LD50 [21] | inhibition at 10 µM [22] | other results
1 | O=C(CSc1nc2ccccc2n1C(=O)c1ccccc1)Nc1ccc(Br)cc1 [Compound 9, 2-(1-Benzoyl-1H-benzo[d]imidazol-2-ylthio)-N-(4-bromophenyl)acetamide] | 27 µM (≈ 12.6 µg/mL) | > 50 µg/mL | > 50 µg/mL | 50 µg/mL (≈ 107 µM) | 8 mm | 17.8 µg/mL (≈ 38.2 µM) | 28.1 µg/mL (≈ 60.3 µM) | 0.027 µM/ml | 27 µM (≈ 12.6 µg/mL) | 27 µM (≈ 12.6 µg/mL) | 27 µM (≈ 12.6 µg/mL) | 27 µM (≈ 12.6 µg/mL) | 13 µM (≈ 6.06 µg/mL) | 27 µM (≈ 12.6 µg/mL) | – | – | – | – | – | – | MBC (B. cereus [2]; [23]): > 50 µg/mL; MBC (B. subtilis [3]; [24]): > 50 µg/mL; MFC (A. niger [7]; [25]): > 50 µg/mL; MFC (C. albicans [8]; [26]): 50 µg/mL (≈ 107 µM); IC50 [12, 27]: > 214 µM; IC50 [13, 28]: 64.3 µM
2 | O=C(CSc1nc2ccccc2n1C(=O)c1ccccc1)Nc1ccc(F)cc1 [Compound 3, 2-(1-Benzoyl-1H-benzo[d]imidazol-2-ylthio)-N-(4-fluorophenyl)acetamide] | 31 µM (≈ 12.6 µg/mL) | 50 µg/mL (≈ 123 µM) | > 50 µg/mL | > 50 µg/mL | > 20 mm | 12.5 µg/mL (≈ 30.8 µM) | 25 µg/mL (≈ 61.7 µM) | – | 31 µM (≈ 12.6 µg/mL) | 31 µM (≈ 12.6 µg/mL) | 31 µM (≈ 12.6 µg/mL) | 31 µM (≈ 12.6 µg/mL) | 15 µM (≈ 6.08 µg/mL) | 31 µM (≈ 12.6 µg/mL) | > 50 µg/mL | > 50 µg/mL | > 50 µg/mL | 25 µg/mL (≈ 61.7 µM) | 1.87 mg/kg | 52.6% | IC50 ([12]; MCF7, read-out: IC50 MCF7): 24.7 µM; IC50 ([13]; HCT-116, read-out: IC50 HCT116): 197 µM
3 | O=C(CSc1nc2ccccc2n1C(=O)c1ccccc1)Nc1cccc(Br)c1 [Compound 8, 2-(1-Benzoyl-1H-benzo[d]imidazol-2-ylthio)-N-(3-bromophenyl)acetamide] | 27 µM (≈ 12.6 µg/mL) | > 50 µg/mL | 50 µg/mL (≈ 107 µM) | > 50 µg/mL | > 20 mm | 12.5 µg/mL (≈ 26.8 µM) | 25 µg/mL (≈ 53.6 µM) | 0.027 µM/ml | 27 µM (≈ 12.6 µg/mL) | 27 µM (≈ 12.6 µg/mL) | 27 µM (≈ 12.6 µg/mL) | 27 µM (≈ 12.6 µg/mL) | 13 µM (≈ 6.06 µg/mL) | 27 µM (≈ 12.6 µg/mL) | > 50 µg/mL | > 50 µg/mL | > 50 µg/mL | 50 µg/mL (≈ 107 µM) | 1.88 mg/kg | 59.5% | IC50 ([12]; MCF7, read-out: IC50 MCF7): 68.6 µM; IC50 ([13]; HCT-116, read-out: IC50 HCT116): 107 µM
4 | O=C(CSc1nc2ccccc2n1C(=O)c1ccccc1)Nc1ccccc1Cl [Compound 4, 2-(1-Benzoyl-1H-benzo[d]imidazol-2-ylthio)-N-(2-chlorophenyl)acetamide] | 30 µM (≈ 12.7 µg/mL) | 50 µg/mL (≈ 119 µM) | 50 µg/mL (≈ 119 µM) | 50 µg/mL (≈ 119 µM) | > 20 mm | 12.5 µg/mL (≈ 29.6 µM) | 25 µg/mL (≈ 59.3 µM) | – | 30 µM (≈ 12.7 µg/mL) | 30 µM (≈ 12.7 µg/mL) | 30 µM (≈ 12.7 µg/mL) | 30 µM (≈ 12.7 µg/mL) | 15 µM (≈ 6.33 µg/mL) | 30 µM (≈ 12.7 µg/mL) | > 50 µg/mL | > 50 µg/mL | > 50 µg/mL | 25 µg/mL (≈ 59.3 µM) | 1.96 mg/kg | 48.5% | IC50 ([12]; MCF7, read-out: IC50 MCF7): 35.6 µM; IC50 ([13]; HCT-116, read-out: IC50 HCT116): 59.4 µM
5 | O=C(CSc1nc2ccccc2n1C(=O)c1ccccc1)Nc1ccc(Cl)cc1[N+](=O)[O-] [Compound 11, 2-(1-Benzoyl-1H-benzo[d]imidazol-2-ylthio)-N-(4-chloro-2-nitrophenyl)acetamide] | 27 µM (≈ 12.6 µg/mL) | 50 µg/mL (≈ 107 µM) | 50 µg/mL (≈ 107 µM) | 50 µg/mL (≈ 107 µM) | 10 mm | 15 µg/mL (≈ 32.1 µM) | 28 µg/mL (≈ 60 µM) | 0.027 µM/ml | 27 µM (≈ 12.6 µg/mL) | 27 µM (≈ 12.6 µg/mL) | 27 µM (≈ 12.6 µg/mL) | 27 µM (≈ 12.6 µg/mL) | 13 µM (≈ 6.07 µg/mL) | 27 µM (≈ 12.6 µg/mL) | – | – | – | – | – | – | MBC (B. cereus [2]; [23]): > 50 µg/mL; MBC (B. subtilis [3]; [24]): 50 µg/mL (≈ 107 µM); MFC (A. niger [7]; [25]): > 50 µg/mL; MFC (C. albicans [8]; [26]): > 50 µg/mL; IC50 [12, 27]: 161 µM; IC50 [13, 28]: 23.6 µM
6 | Cc1ccc(NC(=O)CSc2nc3ccccc3n2C(=O)c2ccccc2)cc1 [Compound 12, 2-(1-Benzoyl-1H-benzo[d]imidazol-2-ylthio)-N-p-tolylacetamide] | 31 µM (≈ 12.4 µg/mL) | 50 µg/mL (≈ 125 µM) | > 50 µg/mL | 50 µg/mL (≈ 125 µM) | > 20 mm | 12.5 µg/mL (≈ 31.1 µM) | 25 µg/mL (≈ 62.3 µM) | – | 31 µM (≈ 12.4 µg/mL) | 31 µM (≈ 12.4 µg/mL) | 31 µM (≈ 12.4 µg/mL) | 31 µM (≈ 12.4 µg/mL) | 16 µM (≈ 6.42 µg/mL) | 31 µM (≈ 12.4 µg/mL) | > 50 µg/mL | > 50 µg/mL | > 50 µg/mL | 25 µg/mL (≈ 62.3 µM) | 1.85 mg/kg | 43.5% | IC50 ([12]; MCF7, read-out: IC50 MCF7): 124 µM; IC50 ([13]; HCT-116, read-out: IC50 HCT116): 39.8 µM
7 | O=C(CSc1nc2ccccc2n1C(=O)c1ccccc1)Nc1ccccc1Br [Compound 7, 2-(1-Benzoyl-1H-benzo[d]imidazol-2-ylthio)-N-(2-bromophenyl)acetamide] | 27 µM (≈ 12.6 µg/mL) | 50 µg/mL (≈ 107 µM) | 50 µg/mL (≈ 107 µM) | > 50 µg/mL | 10 mm | 15 µg/mL (≈ 32.2 µM) | 28 µg/mL (≈ 60 µM) | 0.027 µM/ml | 27 µM (≈ 12.6 µg/mL) | 27 µM (≈ 12.6 µg/mL) | 27 µM (≈ 12.6 µg/mL) | 27 µM (≈ 12.6 µg/mL) | 27 µM (≈ 12.6 µg/mL) | 27 µM (≈ 12.6 µg/mL) | – | – | – | – | – | – | MBC (B. cereus [2]; [23]): > 50 µg/mL; MBC (B. subtilis [3]; [24]): > 50 µg/mL; MFC (A. niger [7]; [25]): > 50 µg/mL; MFC (C. albicans [8]; [26]): 50 µg/mL (≈ 107 µM); IC50 [12, 27]: 55.8 µM; IC50 [13, 28]: 96.5 µM
